Measured values as given in ChEMBL document CHEMBL4007424, “Design and Synthesis of Enantiomerically Pure Decahydroquinoxalines as Potent and Selective κ-Opioid Receptor Agonists with Anti-Inflammatory Activity in Vivo” (J Med Chem, 2017).
Calls of active or inactive are those of the source. The rule behind the calls is not given here.

Tests used:
Rattus norvegicus [1] = assay: Toxicity in Wistar Han rat assessed as clinical signs changes at 1 mg/kg, iv after 1 hr; type: organism-based; settings: in vivo
[2] = Drug level in Wistar Han rat brain at 1 mg/kg, iv measured 1 hr post compound administration; type: ADME, organism-based; settings: Wistar Han, brain, read-out: Drug uptake
[3] = Plasma concentration in Wistar Han rat at 1 mg/kg, iv measured 0.25 hrs post compound administration; type: ADME, organism-based
[4] = Ratio of drug level in brain to plasma in Wistar Han rat at 1 mg/kg, iv after 1 hr; type: ADME, organism-based; settings: read-out: BPR
[5] = Plasma concentration in Wistar Han rat at 1 mg/kg, iv measured 1 hr post compound administration; type: ADME, organism-based
Sus scrofa = organism: Sus scrofa; assay: Displacement of [3H]-(+)-MK 801 from PCP binding site of NMDA receptor in pig brain cortex membranes at 10 uM after 120 mins by solid scintillation counting; type: cell membranes
[6] = molecular target: T1, Kappa-type opioid receptor (Homo sapiens, UniProt P41145); assay: Agonist activity at recombinant human kappa-type opioid receptor expressed in HEK293 cells at 1 uM after 30 mins by [35S]GTPgammaS binding assay; type: functional, cell-based
T1 sequence (P41145 whole entry): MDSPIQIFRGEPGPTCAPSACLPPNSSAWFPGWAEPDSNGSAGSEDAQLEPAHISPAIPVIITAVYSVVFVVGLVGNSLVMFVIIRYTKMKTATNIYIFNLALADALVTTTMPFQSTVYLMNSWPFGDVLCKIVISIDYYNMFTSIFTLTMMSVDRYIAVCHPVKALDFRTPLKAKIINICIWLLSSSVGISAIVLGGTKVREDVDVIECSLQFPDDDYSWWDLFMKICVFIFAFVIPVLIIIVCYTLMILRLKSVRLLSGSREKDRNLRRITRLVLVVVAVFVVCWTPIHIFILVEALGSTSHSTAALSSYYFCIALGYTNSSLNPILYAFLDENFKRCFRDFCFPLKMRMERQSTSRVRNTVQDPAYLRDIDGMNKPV

Rattus norvegicus [7] = organism: Rattus norvegicus; assay: Displacement of [3H]-DTG from sigma 2 receptor in rat liver membranes at 1 uM after 120 mins by scintillation counting; type: cell membranes; settings: Membrane
[8] = molecular target: Sigma non-opioid intracellular receptor 1 (Cavia porcellus) (UniProt Q60492); assay: Displacement of [3H]-(+)-pentazocine from sigma1-type […] receptor in guinea pig cortex membranes at 1 uM after 120 mins by solid scintillation counting; type: cell membranes
Sequence of Sigma non-opioid intracellular receptor 1 (Cavia porcellus) (Q60492 whole entry): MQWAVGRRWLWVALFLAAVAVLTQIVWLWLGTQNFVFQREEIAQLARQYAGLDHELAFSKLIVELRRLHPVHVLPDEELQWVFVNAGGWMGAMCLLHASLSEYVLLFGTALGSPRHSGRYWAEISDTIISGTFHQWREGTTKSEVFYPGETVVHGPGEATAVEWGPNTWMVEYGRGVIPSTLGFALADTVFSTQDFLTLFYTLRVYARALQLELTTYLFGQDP

Mus musculus [9] = assay: (§1) Antiinflammatory activity in oxazolone-induced delayed type hypersensitivity BALB/c mouse model assessed as reduction in ear thickness at 0.5 mg applied topically on ear administered 3 hrs prior to oxazolone challenge on day 7 to 12 post sensitization followed by re-administration of compound on day 13 to 18 without oxazolone challenge measured on day 19; type: functional
[10] = molecular target: Mu-type opioid receptor (Cavia porcellus) (UniProt P97266); assay: Displacement of [3H]DAMGO from mu-type opioid receptor in guinea pig brain membranes at 1 uM after 120 mins by solid scintillation counting; type: cell membranes; settings: Membrane
Sequence of Mu-type opioid receptor (Cavia porcellus) (P97266 whole entry): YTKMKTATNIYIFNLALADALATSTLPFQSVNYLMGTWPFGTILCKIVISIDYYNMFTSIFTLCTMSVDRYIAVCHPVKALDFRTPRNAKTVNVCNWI

Cavia porcellus = organism: Cavia porcellus; assay: Selectivity ratio of Ki for delta-type opioid receptor in guinea pig brain membranes to Ki for kappa-type opioid receptor in guinea pig brain membranes; type: cell membranes
[11] = molecular target: T1, Kappa-type opioid receptor; assay: Agonist activity at recombinant human kappa-type opioid receptor expressed in HEK293 cells after 30 mins by [35S]GTPgammaS binding assay; type: functional, cell-based
[12] = molecular target: Kappa-type opioid receptor (Cavia porcellus, UniProt P41144); assay: Displacement of [3H]U-69,593 from kappa-type opioid receptor in guinea pig brain membranes after 120 mins by solid scintillation counting; type: cell membranes, Membrane
Sequence of Kappa-type opioid receptor (Cavia porcellus, UniProt P41144) (P41144 whole entry): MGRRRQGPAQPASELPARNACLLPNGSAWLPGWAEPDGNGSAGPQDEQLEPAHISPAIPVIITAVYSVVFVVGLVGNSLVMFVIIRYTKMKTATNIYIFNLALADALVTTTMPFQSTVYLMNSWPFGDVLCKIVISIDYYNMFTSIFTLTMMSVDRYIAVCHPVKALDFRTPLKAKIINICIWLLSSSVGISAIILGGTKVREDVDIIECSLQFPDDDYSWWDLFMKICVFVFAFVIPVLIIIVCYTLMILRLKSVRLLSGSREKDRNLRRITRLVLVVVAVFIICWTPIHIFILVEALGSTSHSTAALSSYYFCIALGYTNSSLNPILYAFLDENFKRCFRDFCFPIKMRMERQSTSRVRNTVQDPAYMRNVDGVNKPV

[13] = Displacement of [3H]DPDPE from delta-type opioid receptor in guinea pig brain membranes after 120 mins by solid scintillation counting; type: cell membranes, Cavia porcellus, Membrane
[14] = Plasma concentration in Wistar Han rat at 5 mg/kg, iv measured 0.25 hrs post compound administration; type: ADME, organism-based
[15] = Drug level in Wistar Han rat brain at 5 mg/kg, iv measured 1 hr post compound administration; type: ADME, organism-based; settings: read-out: Drug uptake
[16] = Plasma concentration in Wistar Han rat at 5 mg/kg, iv measured 1 hr post compound administration; type: ADME, organism-based
[17] = Ratio of drug level in brain to plasma in Wistar Han rat at 5 mg/kg, iv after 1 hr; type: ADME, organism-based; settings: read-out: BPR
Rattus norvegicus [18] = assay: Toxicity in Wistar Han rat assessed as assessed as clinical signs changes at 5 mg/kg, iv after 1 hr; type: organism-based; settings: in vivo
Mus musculus [19] = assay: Antiinflammatory activity in oxazolone-induced delayed type hypersensitivity BALB/c mouse model assessed as effect on histology changes at 0.1 to 2.5 mg applied topically on ear administered 3 hrs prior to oxazolone challenge on day 7 to 12 post sensitization followed by re-administration of compound on day 13 to 18 without oxazolone challenge measured daily prior to treatment from day 7 to 19 by H and E staining based assay; type: functional
Mus musculus [20] = assay: Antiinflammatory activity in tropically administered oxazolone-induced delayed type hypersensitivity BALB/c mouse model assessed as effect on ear weight administered 3 hrs prior to oxazolone challenge on day 7 to 12 post sensitization followed by re-administration of compound on day 13 to 18 without oxazolone challenge measured on day 19; type: functional
Mus musculus [21] = assay: as §1, with “weight” for “thickness”, “0.1 to 2.5” for “0.5”; type: functional
[22] = Lipophilicity, logD of the compound at pH 7.4 by LC/MS analysis; type: physicochemical; settings: buffer
Mus musculus [23] = assay: Antiinflammatory activity in arachidonic acid-induced ear dermatitis ICR mouse model assessed as reduction in ear swelling at 0.3 mg administered twice tropically 30 mins prior and 15 mins after arachidonic acid addition measured 60 mins post arachidonic acid challenge relative to control; type: functional
Mus musculus [24] = assay: Antiinflammatory activity in arachidonic acid-induced ear dermatitis ICR mouse model assessed as reduction in ear swelling at 0.1 mg administered twice tropically 30 mins prior and 15 mins after arachidonic acid addition measured 60 mins post arachidonic acid challenge relative to control; type: functional
Mus musculus [25] = assay: Antiinflammatory activity in arachidonic acid-induced ear dermatitis ICR mouse model assessed as reduction in ear swelling at 3 mg administered twice tropically 30 mins prior and 15 mins after arachidonic acid addition measured 60 mins post arachidonic acid challenge relative to control; type: functional
Mus musculus [26] = assay: Antiinflammatory activity in arachidonic acid-induced ear dermatitis ICR mouse model assessed as reduction in ear swelling at 1 mg administered twice tropically 30 mins prior and 15 mins after arachidonic acid addition measured 60 mins post arachidonic acid challenge relative to control; type: functional
Mu-type opioid receptor = Mu-type opioid receptor (Cavia porcellus, UniProt P97266); assay: Displacement of [3H]DAMGO from mu-type opioid receptor in guinea pig brain membranes after 120 mins by solid scintillation counting; type: cell membranes, Membrane
Sequence of Mu-type opioid receptor (P97266 whole entry): as the sequence (P97266 whole entry) above

SMILES	inhibition (Sus scrofa) [%]	Activity [6] [%]	inhibition (Rattus norvegicus [7]) [%]	inhibition [8] [%]	concentration at 0.25 h [14] [ng/mL]	concentration at 1 h [15] [ng/g]	concentration at 1 h [16] [ng/mL]	Kp at 1 h [17]	Activity (Rattus norvegicus [18])	also measured
CS(=O)(=O)N1CCN(C(=O)Cc2ccc(Cl)c(Cl)c2)[C@@H]2[C@@H](N3CCCC3)CCC[C@@H]21.Cl										Activity (Rattus norvegicus [1]): Non-Toxic; concentration at 1 h [2]: 2.9 ng/g; concentration at 0.25 h [3]: 246 ng/mL; Kp at 1 h [4]: 0.02; concentration at 1 h [5]: 124 ng/mL
COC(=O)N1CCN(C(=O)Cc2cccc(Cl)c2)[C@@H]2[C@@H](N3CC[C@H](O)C3)CCC[C@@H]21 [listing 1 of 2 here]	4	102	0	0						Activity (Mus musculus [9]): Active
COC(=O)N1CCN(C(=O)Cc2ccc(Cl)c(Cl)c2)[C@@H]2[C@@H](N(C)C)CCC[C@@H]21	0	96	0	4						inhibition [10]: 0%; Ratio Ki (Cavia porcellus): > 50
O=C(Cc1ccc(Cl)cc1)N1CCN(S(=O)(=O)Cc2ccon2)[C@H]2CCC[C@H](N3CC[C@H](O)C3)[C@H]21	0	103	0	24						inhibition [10]: 0%; EC50 [11]: 6.9 nM; Ki [12]: 0.98 nM; Ki [13]: 880 nM
CS(=O)(=O)N1CCN(C(=O)Cc2ccc(F)c(Cl)c2)[C@@H]2[C@@H](N3CC[C@H](O)C3)CCC[C@@H]21.Cl					1210	38.7	356	0.11	Non-Toxic	
CC(C)NC(=O)N1CCN(C(=O)Cc2ccc(Cl)c(Cl)c2)[C@@H]2[C@@H](N3CCCC3)CCC[C@@H]21.Cl										Activity (Rattus norvegicus [1]): Non-Toxic; concentration at 1 h [2]: 2.9 ng/g; concentration at 0.25 h [3]: 290 ng/mL; Kp at 1 h [4]: 0.02; concentration at 1 h [5]: 130 ng/mL
COC(=O)N1CCN(C(=O)Cc2ccc(F)c(Cl)c2)[C@@H]2[C@@H](N3CC[C@H](O)C3)CCC[C@@H]21.Cl					970	44	465	0.09	Non-Toxic	
CS(=O)(=O)N1CCN(C(=O)Cc2ccc(Cl)c(F)c2)[C@@H]2[C@@H](N3CC[C@H](O)C3)CCC[C@@H]21.Cl					938	37.5	437	0.09	Non-Toxic	
CS(=O)(=O)N1CCN(C(=O)Cc2ccc(Cl)c(Cl)c2)[C@@H]2[C@@H](N3CC[C@H](O)C3)CCC[C@@H]21.Cl					4650	52.3	2170	0.02	Non-Toxic	
COC(=O)N1CCN(C(=O)Cc2ccc(Cl)cc2)[C@@H]2[C@@H](N3CC[C@H](O)C3)CCC[C@@H]21	7	103	11	21						Activity (Mus musculus [19]): Active; Activity (Mus musculus [20]): Dose-dependent effect; Activity (Mus musculus [21]): Dose-dependent effect
O=C(Cc1ccc(Cl)c(F)c1)N1CCN(S(=O)(=O)Cc2ccon2)[C@H]2CCC[C@H](N3CC[C@H](O)C3)[C@H]21	13	105	7	0						inhibition [10]: 6%; EC50 [11]: 1.4 nM; Ki [12]: 0.82 nM; logD [22]: 1.4; Ki [13]: 1380 nM
COC(=O)N1CCN(C(=O)Cc2ccc(Cl)c(Cl)c2)[C@@H]2[C@@H](N3CC[C@@H](O)C3)CCC[C@@H]21.Cl										Activity (Rattus norvegicus [1]): Non-Toxic; concentration at 1 h [2]: 7.9 ng/g; concentration at 0.25 h [3]: 454 ng/mL; Kp at 1 h [4]: 0.07; concentration at 1 h [5]: 115 ng/mL
COC(=O)N1CCN(C(=O)Cc2ccc(F)c(F)c2)[C@@H]2[C@@H](N3CC[C@H](O)C3)CCC[C@@H]21 [listing 1 of 2 here]	11	108	10	34						inhibition [10]: 4%; Activity (Mus musculus [19]): Active; Activity (Mus musculus [20]): Dose-dependent effect; Activity (Mus musculus [21]): Dose-dependent effect; Activity (Mus musculus [9]): Active
COC(=O)N1CCN(C(=O)Cc2ccc(Cl)c(F)c2)[C@@H]2[C@@H](N3CC[C@H](O)C3)CCC[C@@H]21.Cl					1350	66.2	546	0.12	Non-Toxic	
COC(=O)N1CCN(C(=O)Cc2ccc(Cl)c(Cl)c2)[C@@H]2[C@@H](N3CC[C@@H](O)C3)CCC[C@@H]21	55	109	13	0						inhibition [10]: 5%
COC(=O)N1CCN(C(=O)Cc2ccc(Cl)c(F)c2)[C@@H]2[C@@H](N3CC[C@H](O)C3)CCC[C@@H]21	11	93	0	0						Activity (Mus musculus [19]): Active; Activity (Mus musculus [20]): Dose-dependent effect; Activity (Mus musculus [21]): Dose-dependent effect; Activity (Mus musculus [9]): Active
COC(=O)N1CCN(C(=O)Cc2cccc(Cl)c2)[C@@H]2[C@@H](N3CC[C@H](O)C3)CCC[C@@H]21.Cl					1500	41.2	414	0.1	Non-Toxic	
COC(=O)CN1CCN(C(=O)Cc2ccc(Cl)c(Cl)c2)[C@@H]2[C@@H](N3CCCC3)CCC[C@@H]21.Cl										Activity (Rattus norvegicus [1]): Non-Toxic; concentration at 1 h [2]: 4.6 ng/g; concentration at 0.25 h [3]: 477 ng/mL; Kp at 1 h [4]: 0.02; concentration at 1 h [5]: 199 ng/mL
COC(=O)N1CCN(C(=O)Cc2ccc(F)c(F)c2)[C@@H]2[C@@H](N3CC[C@H](O)C3)CCC[C@@H]21.Cl					1410	46.4	392	0.12	Non-Toxic	
COC(=O)N1CCN(C(=O)Cc2ccc(F)c(F)c2)[C@@H]2[C@@H](N3CC[C@H](O)C3)CCC[C@@H]21 [listing 2 of 2 here]										EC50 [11]: 11 nM; inhibition (INH) (Mus musculus [23]): -20%; Ki [12]: 1.2 nM; inhibition (INH) (Mus musculus [24]): 1%; logD [22]: 0.77; inhibition (INH) (Mus musculus [25]): 64%; Ki [13]: 623 nM; inhibition (INH) (Mus musculus [26]): -11%
COC(=O)N1CCN(C(=O)Cc2ccc(F)c(Cl)c2)[C@@H]2[C@@H](N3CC[C@H](O)C3)CCC[C@@H]21	13	110	35	0						Ratio Ki (Cavia porcellus): 80
COC(=O)N1CCN(C(=O)Cc2cccc(Cl)c2)[C@@H]2[C@@H](N3CC[C@H](O)C3)CCC[C@@H]21 [listing 2 of 2 here]										EC50 [11]: 15 nM; inhibition (INH) (Mus musculus [23]): 12%; Ki [12]: 1.7 nM; inhibition (INH) (Mus musculus [24]): -15%; Ki (Mu-type opioid receptor): 512 nM; inhibition (INH) (Mus musculus [25]): 55%; Ki [13]: 1120 nM; inhibition (INH) (Mus musculus [26]): 44%
COC(=O)N1CCN(C(=O)Cc2ccc(Cl)cc2)[C@@H]2[C@@H](N3CC[C@H](O)C3)CCC[C@@H]21.Cl					1340	70.6	374	0.19	Non-Toxic	
CC(C)NC(=O)N1CCN(C(=O)Cc2ccc(Cl)c(Cl)c2)[C@@H]2[C@@H](N3CCCC3)CCC[C@@H]21	0	100	0	0						inhibition [10]: 0%
